From US20220347267A1, “METHODS TO IMPROVE PATIENT RESPONSE TO IMMUNE CHECKPOINT INHIBITORS AND FUNCTIONAL TESTS TO PREDICT RESPONSE” (Biomarker Strategies, LLC, priority 2019, published 2022)

What was measured:
Format in all cases: cell-based, human
[1] = test system: BT20 cells; experiment: PD-L1 western blot after modulators (EM and MTAs); details: Breast BT20, 30 minutes, 3 hours, 24 hours
Excerpt: (§1) Cell lines were acquired from ATCC, Sigma, or DSMZ. Human non-small cell lung carcinoma (NSCLC) cell lines H292 (ATCC no. CRL-1848.), H1299 (ATCC no. CRL-5803), H520 (ATCC no. CRL-5811), CALU6 (ATCC no. HTB-56), H1975 (ATCC no. CRL-5908), H460 (ATCC no. HTB-177), H2126 (ATCC no. CCL-256), H1650 (ATCC no. CRL-5883), and H2087 (ATCC no. CRL-5922) were used for this experiment along with head and neck squamous cell carcinoma (HNSCC) cell lines BHY (DSMZ ACC 404), CAL27 (ATCC no. CRL-2095), KYSE410 (Sigma), and A253 (ATCC no. HTB-41), melanoma cell lines A375 (ATCC no. CRL-1619), COL0853 (Sigma), and MM127 (Sigma) pancreatic cancer cell lines BXPC3 (ATCC no. CRL-1687), colorectal cancer cell lines […], HCT116 (ATCC no. CCL-247EMT), and breast cancer cell lines BT549 (ATCC no. HTB-122), BT20 (ATCC no. HTB-19), and T47D (ATCC no. HTB-133). Cells were maintained in manufacturer-recommended conditions at 37° C. inside humidified 5% CO2 incubators. Sub-cultivation and harvesting for all cell lines were performed using Accutase (GIBCO Life Technologies; cat. no. A1110501) at 37° C. for 10 minutes. Cell viability was measured using trypan blue exclusion staining in conjunction with the Countess II Automated Cell Counter (Thermo Fischer Scientific; cat. no. AMQAX1000). Measurements were made in duplicate and the average number of viable cells was recorded prior to experiments.
(§2) Enhancer Molecule and Therapies: IFNγ, (10 ng/ml; Sigma Aldrich, cat.no 11040596001), TNFα (10 ng/ml; BD Biosciences cat. no. 554618), Osimertinib (100 ng/ml; Selleckchem cat.no. S7297), Everolimus (100 ng/ml; Selleckchem cat.no S1120), GSK458 (10 ng/ml; Selleckchem cat. no. S2658), TNFb (50 ng/ml; Sigma Aldrich cat. no.), GSK795 (1,000 ng/ml; Selleckchem cat. no. S7492), IL-12 (50 ng/ml; Sigma Aldrich SRP3073), GM-CSF (50 ng/ml; Sigma Aldrich cat. no. G5035), IL-1a (1 ng/ml; Sigma Aldrich cat. no. 12778-), IL-6 (50 ng/ml; Sigma Aldrich), IL-17 (100 ng/ml; Sigma Aldrich cat. no. SRP3080), TGFb (1 ng/ml; Sigma Aldrich cat. no. T7039), and IL-10 (50 ng/ml; Sigma Aldrich cat. no. SRP3071) were administered to cell lines for various times including 30 minutes, 3 hour, and 24 hour time intervals prior to cell lysis and protein extraction.
(§3) To determine the effects of the aforementioned molecules on the modulation of PD-L1, we selected various NSCLC, HNSCC, breast cancer, melanoma, colorectal cancer, and pancreatic cancer cell lines as examples. Other diseases or cell lines could be used readily as could more complex samples such as cells isolated from xenografts and clinical samples. Cells were plated, for three different time points (30 minutes, 3 hours, and 24 hours), inside 6-well petri dishes with 2 mL of appropriate medium. Plates were incubated for 24 hours in 5% CO2 incubators at 37° C. After 24 hours, each 6-well plate was washed with PBS (Gibco Life Technologies, cat. no. 10010023) followed by fresh media being added along with each cell line's vehicle control or appropriate modulator for each specific time point, and were placed in CO2 incubators until their modulation time point was reached. Other conditions can be readily used, such as processing on automated systems such as SnapPath. At the end of each time point, while keeping plates on ice, cell lysis was conducted by aspirating culture medium from each plate, washing of each plate three times with 5 ml of cold PBS (Gibco Life Technologies, cat. no. 10010023) and culminated with the addition of cold 1× lysis buffer containing (Cell Signaling, cat. no. 9803 S) protease inhibitor cocktail (Cell Signaling, cat. no. 5871S), phosphatase inhibitor cocktail (Cell Signaling, cat. no. 5870S), and PMSF (Fisher Scientific, cat. no. ICN19538101). Plates were then placed on ice for ten minutes, swirling each plate intermittently. Aliquots of protein lysates were prepared and then stored at −80° C. until protein quantification and Western blot analysis was to be conducted. […]

[2] = test system: BxPC3 cells; experiment: PD-L1 western blot after modulators (EM and MTAs); details: Pancreatic BxPC3, 30 minutes, 3 hours, 24 hours
Excerpt: as §1, §2, §3

[3] = test system: H292 cells; experiment: PD-L1 western blot after modulators (EM and MTAs); details: NSCLC H292, 30 minutes, 3 hours, 24 hours
Excerpt: as §1
(§4) T7039), and IL-10 (50 ng/ml; Sigma Aldrich cat. no. SRP3071) were administered to cell lines for various times including 30 minutes, 3 hour, and 24 hour time intervals prior to cell lysis and protein extraction.
(§5) To determine the effects of the aforementioned molecules on the modulation of PD-L1, we selected various NSCLC, HNSCC, breast cancer, melanoma, colorectal cancer, and pancreatic cancer cell lines as examples. Other diseases or cell lines could be used readily as could more complex samples such as cells isolated from xenografts and clinical samples. Cells were plated, for three different time points (30 minutes, 3 hours, and 24 hours), inside 6-well petri dishes with 2 mL of appropriate medium. Plates were incubated for 24 hours in 5% CO2 incubators at 37° C. After 24 hours, each 6-well plate was washed with PBS (Gibco Life Technologies, cat. no. 10010023) followed by fresh media being added along with each cell line's vehicle control or appropriate modulator for each specific time point, and were placed in CO2 incubators until their modulation time point was reached. Other conditions can be readily used, such as processing on automated systems such as SnapPath. At the end of each time point, while keeping plates on ice, cell lysis was conducted by aspirating culture medium from each plate, washing of each plate three times with 5 ml of cold PBS (Gibco Life Technologies, cat. no. 10010023) and culminated with the addition of cold 1× lysis buffer containing (Cell Signaling, cat. no. 9803 S) protease inhibitor cocktail (Cell Signaling, cat. no. 5871S), phosphatase inhibitor cocktail (Cell Signaling, cat. no. 5870S), and PMSF (Fisher Scientific, cat. no. ICN19538101). Plates were then placed on ice for ten minutes, swirling each plate intermittently. Aliquots of protein lysates were prepared and then stored at −80° C. until protein quantification and Western blot analysis was to be conducted. The protein concentration of each lysate was analyzed by using the Pierce 660 Protein Assay Reagent (Thermo Fisher Scientific, cat. no. 22660) and testing of each sample was conducted in duplicate. Two μg of protein was then loaded per lane into 10% Midi-PROTEAN TGX Precast Gels (Bio Rad, cat. no. 5671034) along with Kaleidoscope Prestained Protein Standard (BioRad, cat. no. 1610375) which ran at 220V for 45 minutes. Proteins were transferred to mini-PVDF membranes (BioRad, cat. no. 1704156) in 3 minutes using the Trans-Blot Turbo Transfer System (BioRad, cat. no. 1704150EDU).

[4] = test system: various NSCLC, HNSCC, breast cancer, melanoma, colorectal cancer, and pancreatic cancer cell lines; experiment: PD-L1 western blot after modulators, summary over all samples; details: depending on the sample, summary of Table 3
Excerpt: as §1, §4, §5

[5] = test system: KYSE410 cells; experiment: PD-L1 western blot after modulators (EM and MTAs); details: Head and neck KYSE410, 30 minutes, 3 hours, 24 hours
Excerpt: as §1, §2, §3

[6] = test system: BHY cells; experiment: PD-L1 western blot after modulators (EM and MTAs); details: Head and neck BHY, 30 minutes, 3 hours, 24 hours
Excerpt: as §1, §2, §3

[7] = test system: H2087 cells; experiment: PD-L1 western blot after modulators (EM and MTAs); details: NSCLC H2087, 30 minutes, 3 hours, 24 hours
Excerpt: as §1, §2, §3

[8] = test system: CAL27 cells; experiment: PD-L1 western blot after modulators (EM and MTAs); details: Head and neck CAL27, 30 minutes, 3 hours, 24 hours
Excerpt: as §1, §2, §3

[9] = test system: H1975 cells; experiment: PD-L1 western blot after modulators (EM and MTAs); details: NSCLC H1975, 30 minutes, 3 hours, 24 hours
Excerpt: as §1, §2, §3

[10] = test system: BT549 cells; experiment: PD-L1 western blot after modulators (EM and MTAs); details: Breast BT549, 30 minutes, 3 hours, 24 hours
Excerpt: as §1, §4, §5

[11] = test system: H2126 cells; experiment: PD-L1 western blot after modulators (EM and MTAs); details: NSCLC H2126, 30 minutes, 3 hours, 24 hours
Excerpt: as §1, §2, §3

[12] = test system: H1650 cells; experiment: PD-L1 western blot after modulators (EM and MTAs); details: NSCLC H1650, 30 minutes, 3 hours, 24 hours
Excerpt: as §1, §4, §5

Row | Molecule | PD-L1 Response [1] | PD-L1 Response [3] | regulation of PD-L1 across samples [4] | PD-L1 Response [9] | also measured
1 | COc1ncc(-c2ccc3nccc(-c4ccnnc4)c3c2)cc1NS(=O)(=O)c1ccc(F)cc1F [GSK458, reference compound] | Up | Down | both up and down regulation | – | PD-L1 Response [2]: Up
2 | CO[C@H]1C[C@@H]2CC[C@@H](C)[C@@](O)(O2)C(=O)C(=O)N2CCCC[C@H]2C(=O)O[C@H]([C@H](C)C[C@@H]2CC[C@@H](OCCO)[C@H](OC)C2)CC(=O)[C@H](C)/C=C(\C)[C@@H](O)[C@@H](OC)C(=O)[C@H](C)C[C@H](C)/C=C/C=C/C=C/1C [everolimus, Everolimus] | – | Down | both up and down regulation | – | PD-L1 Response [2]: Up
3 | C=CC(=O)Nc1cc(Nc2nccc(-c3cn(C)c4ccccc34)n2)c(OC)cc1N(C)CCN(C)C [Osimertinib, reference compound] | – | Down | both up and down regulation | – | PD-L1 Response [5]: Up; PD-L1 Response [6]: Up
4 | TGFb: enhancer molecule, 1 ng/ml; Sigma Aldrich | – | – | only led to upregulation | – | –
5 | GM-CSF: enhancer molecule, 50 ng/ml; Sigma Aldrich | – | – | only led to upregulation | – | PD-L1 Response [7]: Up
6 | Cn1ncc(Cl)c1-c1cc(C(=O)N[C@H](CN)Cc2ccc(F)c(F)c2)oc1Cl [GSK795, reference compound] | – | – | – | Down | PD-L1 Response [8]: Up; PD-L1 Response [6]: Up; PD-L1 Response [10]: Up
7 | IL1a: interleukin modulator, 1 ng/ml; Sigma Aldrich (protein, UniProt P01583 113-271, looked up) Interleukin-1 alpha: SAPFSFLSNVKYNFMRIIKYEFILNDALNQSIIRANDQYLTAAALHNLDEAVKFDMGAYKSSKDDAKITVILRISKTQLYVTAQDEDQPVLLKEMPEIPKTITGSETNLLFFWETHGTKNYFTSVAHPNLFIATKQDYWVCLAGGPPSITDFQILENQA | Up | Up | only led to upregulation | Up | PD-L1 Response [11]: Up; PD-L1 Response [5]: Up; PD-L1 Response [12]: Up; PD-L1 Response [10]: Up
8 | IL12: interleukin modulator, 50 ng/ml; Sigma Aldrich (protein, UniProt P29459 23-219; P29460 23-328, looked up) Interleukin-12 subunit alpha: RNLPVATPDPGMFPCLHHSQNLLRAVSNMLQKARQTLEFYPCTSEEIDHEDITKDKTSTVEACLPLELTKNESCLNSRETSFITNGSCLASRKTSFMMALCLSSIYEDLKMYQVEFKTMNAKLLMDPKRQIFLDQNMLAVIDELMQALNFNSETVPQKSSLEEPDFYKTKIKLCILLHAFRIRAVTIDRVMSYLNAS Interleukin-12 subunit beta: IWELKKDVYVVELDWYPDAPGEMVVLTCDTPEEDGITWTLDQSSEVLGSGKTLTIQVKEFGDAGQYTCHKGGEVLSHSLLLLHKKEDGIWSTDILKDQKEPKNKTFLRCEAKNYSGRFTCWWLTTISTDLTFSVKSSRGSSDPQGVTCGAATLSAERVRGDNKEYEYSVECQEDSACPAAEESLPIEVMVDAVHKLKYENYTSSFFIRDIIKPDPPKNLQLKPLKNSRQVEVSWEYPDTWSTPHSYFSLTFCVQVQGKSKREKKDRVFTDKTSATVICRKNASISVRAQDRYYSSSWSEWASVPCS | – | – | – | Down | –
9 | TNFb: enhancer molecule, 50 ng/ml; Sigma Aldrich (protein, UniProt P01374 35-205, looked up) Lymphotoxin-alpha: LPGVGLTPSAAQTARQHPKMHLAHSTLKPAAHLIGDPSKQNSLLWRANTDRAFLQDGFSLSNNSLLVPTSGIYFVYSQVVFSGKAYSPKATSSPLYLAHEVQLFSSQYPFHVPLLSSQKMVYPGLQEPWLHSMYHGAAFQLTQGDQLSTHTDGIPHLVLSPSTVFFGAFAL | Up | – | both up and down regulation | Up | PD-L1 Response [7]: Down; PD-L1 Response [12]: Up
